ChEMBL document CHEMBL1159276, “Sinugibberol, a new cytotoxic cembranoid diterpene from the soft coral Sinularia gibberosa” (1995)
≈ marks a conversion by molar mass, not a printed value.

Legend:
P388 = test: Cytotoxicity against mouse P388 cells by MTT method; assay type: functional; conditions: read-out: ED50 (the source's name)
HT-29 = test: Cytotoxicity against human HT-29 cells after 6 days by MTT method; assay type: functional; conditions: HT-29, 144 h, read-out: ED50 (the source's name)

## C/C1=C\CC[C@@]2(C)O[C@@H]2/C=C(/C(C)(C)O)CC[C@@]2(C)O[C@@H]2CC1 [SINUGIBBEROL]
P388
  EC50: 11.7 µg/mL (≈ 36.5 µM)
HT-29
  EC50: 0.5 µg/mL (≈ 1.56 µM)
